In PMC10093845, “Inhibitory Activities of Samples on Tyrosinases Were Affected by Enzyme Species and Sample Addition Methods” (International Journal of Molecular Sciences, 2023):
Read-outs that look alike come from different tables or passages of the source.

Columns and labels:
[1] = biological target: T1, BTYR (TYR crude enzyme extract from B16F10 cells) (Mus musculus, UniProt P11344); test: BTYR directly inhibitory activity (TYR extraction followed by sample treatment, non-cellular system); format: biochemical, murine
T1 construct: The lysates, called BTYR, were centrifuged at 12,000 rpm for 10 min at 4 °C; endogenous in cells; host or cells: B16F10 murine melanoma cells
T1 sequence (P11344 19-533): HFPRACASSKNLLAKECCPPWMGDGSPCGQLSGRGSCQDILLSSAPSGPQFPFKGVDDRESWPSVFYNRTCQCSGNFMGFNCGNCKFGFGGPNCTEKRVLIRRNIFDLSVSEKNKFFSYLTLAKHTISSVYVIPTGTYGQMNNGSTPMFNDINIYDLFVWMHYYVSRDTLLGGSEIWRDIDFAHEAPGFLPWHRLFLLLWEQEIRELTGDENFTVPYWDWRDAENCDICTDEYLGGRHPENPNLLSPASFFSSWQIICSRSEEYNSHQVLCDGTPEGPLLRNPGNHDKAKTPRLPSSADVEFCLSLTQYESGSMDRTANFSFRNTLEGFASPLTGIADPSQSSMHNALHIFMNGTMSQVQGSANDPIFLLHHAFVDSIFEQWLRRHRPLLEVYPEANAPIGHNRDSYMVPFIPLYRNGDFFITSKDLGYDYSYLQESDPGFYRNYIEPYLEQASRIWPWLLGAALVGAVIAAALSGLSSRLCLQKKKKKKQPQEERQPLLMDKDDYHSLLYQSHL
Experimental: B16F10 cells at the exponential phase in 10 cm^2 cell culture dish were washed with D-PBS two times and incubated for 30 min at −20 °C in 1.16 mL of lysis buffer. The lysates, called BTYR, were centrifuged at 12,000 rpm for 10 min at 4 °C.
The reaction system in 96-well plate was 100 μL. 20 μL of BTYR was mixed with 20 μL compounds and incubated at 25 °C for 10 min, then 60 μL of 8 mM L-DOPA was added to start the reaction. A Synergy H1 microplate reader (BioTek Instruments, Inc., Winooski, VT, USA) was used to dynamically monitor the optical densities at 475 nm. Absorbance was measured every minute and sustained 30 min. The initial velocity (v0) of each reaction was represented by the slope of the initial linear range of the progress curve, and was used to calculate the relative enzyme activity of each treatment [16].
BTYR directly inhibitory activity compared to negative control could be expressed by following formula [16]. Δsample = sample − sample control, Δcontrol = negative control − blank control(1) kΔsample = (Δsamplet1 − Δsamplet0)/(t1 − t0), kΔcontrol = (Δcontrolt1 − Δcontrolt0)/(t1 − t0)(2) (3) BTYR direct inhibition %=1−kΔsample/kΔcontrol×100 […]

[2] = biological target: T2, BTYR (intracellular TYR of B16F10 cells) (Mus musculus, UniProt P11344); test: BTYR indirectly inhibitory activity in cells cultured by compounds; format: cell-based, murine
T2 construct: The lysates, called BTYR, were centrifuged at 12,000 rpm for 10 min at 4 °C; endogenous in cells; host or cells: B16F10 murine melanoma cells
T2 sequence (P11344 19-533): T1 sequence (P11344 19-533)
Experimental: Referring to our previous methods. In short, B16F10 murine melanoma cells from Stem Cell Bank (Chinese Academy of Sciences, Shanghai, China) were cultured in DMEM supplemented with 10% FBS in a humidified atmosphere of 5% CO2 at 37 °C.
The BTYR indirectly inhibitory activity was assayed according to our previous procedure with slight modification. Cells were cultured by complete medium containing compounds for 48 h and lysed by 120 μL of lysis buffer to obtain crude BTYR extract. […] The molarities of EGCG were 25, 50, 100, 125, 150, 175 and 200 μM. The treatment group without samples was negative control.
In a reaction system of 100 μL, 20 μL of BTYR was mixed with 60 μL of 8 mM L-DOPA (the remaining volume was supplemented with 20 mM pH 6.8 PBS), and immediately placed at 475 nm for dynamic detection for 30 min. The absorbance was measured once per minute. The control group containing only BTYR (blank control and sample control) was set for synchronous detection to exclude background interference.
With negative control as the reference, the indirectly inhibitory activity of BTYR was calculated in the same way as in Section 4.2.

[3] = tested on: B16F10 cells; test: Cell viability (CCK-8); format: cell-based, murine
Experimental: (§1) Referring to our previous methods. […] Measurement of cell viability was determined according to our previous procedure. In brief, cells were seeded into 96-well plates at a density of 1 × 10^4 cells/well and incubated for 24 h. Then, the culture medium was replaced with complete medium containing compound and further incubated at 37 °C for 48 h. After rinsing once with D-PBS, 100 µL DMEM containing 10% CCK-8 was added to each well. Followed by another 1 h incubation, the absorbance at 450 nm was measured. […] The cell viability was expressed as a percentage of the control.

[4] = tested on: ATYR (crude TYR extracted from apple); test: ATYR directly inhibitory activity; format: biochemical; settings: for IC50: sample in direct contact with ATYR, kojic acid inhibits only at high concentration (800–4000 µM)
Experimental: The preparation of fresh-cut apple slices was the same as in Section 4.4. The preparation of crude ATYR was carried out by reference and slightly adjusted. […] Finally, these apple slices were used to extract ATYR. […] After the supernatant was divided, it was quick-frozen with liquid nitrogen, and then stored in the refrigerator at −80 °C. The supernatant was used for ATYR activity analysis. In a reaction system of 200 μL, 40 µL ATYR was mixed with 40 µL corresponding compound in 96-well plates. After incubated at 25 °C for 10 min, L-DOPA (120 µL, 8 mM) was added to each well as a substrate. Once the substrate was added in reaction system, the formation of dopachrome was immediately measured at 475 nm for 30 min at 1 min intervals. […] The group setting and the calculation of ATYR directly inhibitory activity were the same as in Section 4.2.

[5] = tested on: ATYR (crude TYR extracted from apple); test: ATYR indirectly inhibitory activity (apple slices soaked, then enzyme extracted); settings: apple slices soaked in 1 mM for 10 min; water 0 ± 4% as negative control; negative = promotion
Experimental: The preparation of fresh-cut apple slices was the same as in Section 4.4. The preparation of crude ATYR was carried out by reference and slightly adjusted. […] Finally, these apple slices were used to extract ATYR. […] After the supernatant was divided, it was quick-frozen with liquid nitrogen, and then stored in the refrigerator at −80 °C. The supernatant was used for ATYR activity analysis. Apple slices, immersing in various test solutions for 10 min, were used to extract crude ATYR solution. […] The control group containing only ATYR (blank control and sample control) was set for synchronous detection to exclude background interference. With negative control as the reference, the indirectly inhibitory activity of ATYR was calculated in the same way as in Section 4.2.

[6] = biological target: T3, MTYR (mushroom TYR) (Agaricus bisporus, UniProt C7FF04); test: MTYR directly inhibitory activity; format: biochemical
Experimental: The MTYR directly inhibitory activity was assayed according to our previous procedure. Briefly, the reaction media was 200 µL in 96-well plates. MTYR (40 µL, 30 U/mL) in PBS (20 mM, pH 6.8) was incubated with the corresponding compound (40 µL) at 25 °C for 10 min. Then, L-DOPA ([…], 8 mM) was added to each well as a substrate. The other steps and the calculation of MTYR directly inhibitory activity were the same as above method in Section 4.2.

[7] = biological target: T3, MTYR (mushroom TYR); test: Kinetic analysis of MTYR (Lineweaver-Burk); format: biochemical; settings: L-DOPA substrate
Experimental: The experimental method was the same as Section 4.8, except for the substrate concentration and compound concentration. A series of experiments were performed to determine the type of inhibition.
The molarities of L-DOPA were 0.0625, 0.25, 1, 4 and 8 mM. […] The Km and Vmax of MTYR were determined by the Michaelis–Menten equation. The Lineweaver–Burk plot was used to display the data. Secondary replot of Lineweaver–Burk plot or intercept was used to display inhibition constant (Ki) and α.

[8] = tested on: B16F10 cells; test: Intracellular melanin content; format: cell-based, murine; settings: 100 μg/mL, α-MSH stimulated B16F10 cells, 48 h
Experimental: Measurement of intracellular melanin content was determined according to our previous procedure. Briefly, Cells were cultured by complete medium containing compounds for 48 h. Then, intracellular melanin was extracted by 1 M NaOH containing 10% DMSO. The absorbance of the dissolved melanin was obtained using a microplate reader at 405 nm. The melanin content of each treatment group was calculated with the negative control group as reference.

[9] = tested on: BTYR mRNA; test: qPCR analysis of TYR gene; format: cell-based, murine; settings: 100 μg/mL, 24 h, α-MSH stimulated
Experimental: Measurement of mRNA expression of TYR was determined according to our previous procedure. […] Total RNAs prepared were followed and qPCR analysis of TYR were carried on with β-actin as an internal control.

[10] = tested on: B16F10 cells; settings: previous studies; cited from earlier work
[11] = tested on: MTYR; settings: cited from earlier work
[12] = tested on: HTYR; settings: cited from earlier work
[13] = Cell viability (CCK-8); format: cell-based, murine; settings: mouse, B16F10 melanoma cells, 48 h
Experimental: as §1

[14] = tested on: HMV-II; parameters: method as in PMID 15056856; settings: concentration lower than 1 mM; cited from earlier work

T3 sequence (C7FF04 1-392): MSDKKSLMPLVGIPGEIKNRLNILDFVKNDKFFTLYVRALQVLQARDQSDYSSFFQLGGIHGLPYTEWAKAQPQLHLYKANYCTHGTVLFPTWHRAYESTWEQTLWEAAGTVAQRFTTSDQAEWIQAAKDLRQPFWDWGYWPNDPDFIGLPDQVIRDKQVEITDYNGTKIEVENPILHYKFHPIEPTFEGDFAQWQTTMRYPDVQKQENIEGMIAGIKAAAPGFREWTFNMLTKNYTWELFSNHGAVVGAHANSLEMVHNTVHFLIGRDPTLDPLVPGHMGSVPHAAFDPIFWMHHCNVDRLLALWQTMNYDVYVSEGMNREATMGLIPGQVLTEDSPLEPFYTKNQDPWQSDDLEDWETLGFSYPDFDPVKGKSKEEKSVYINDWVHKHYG
T3 sequence (G1K3P4 1-150 partner): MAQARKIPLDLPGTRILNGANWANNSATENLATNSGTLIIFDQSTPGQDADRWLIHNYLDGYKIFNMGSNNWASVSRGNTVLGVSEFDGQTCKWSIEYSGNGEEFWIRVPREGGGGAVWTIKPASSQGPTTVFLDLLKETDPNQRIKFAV

## O=C(O[C@@H]1Cc2c(O)cc(O)cc2O[C@@H]1c1cc(O)c(O)c(O)c1)c1cc(O)c(O)c(O)c1 [EGCG, Epigallocatechin gallate]
[1]; 100 μg/mL
  catalytic activity of BTYR in non-cellular system: could not
[1]; 0.025–2.4 mM EGCG
  BTYR direct inhibition rate: < 50%
[2]; 100 μg/mL, α-MSH stimulated B16F10 cells, 48 h
  intracellular BTYR activity: inhibit intracellular BTYR activity
[2]; cells cultured with compound 48 h, then TYR extracted
  IC50: 195 ± 3 µM
[3]; 25 µM, 48 h
  Cell Viability (%): 100 ± 2%
[3]; 50 µM, 48 h
  Cell Viability (%): 98 ± 2%
[3]; 100 µM, 48 h
  Cell Viability (%): 95 ± 6%
[3]; 200 µM, 48 h
  Cell Viability (%): 106 ± 1%
[3]; 400 µM, 48 h
  Cell Viability (%): 66 ± 4%
[3]; 600 µM, 48 h
  Cell Viability (%): 4 ± 0%
[3]; 800 µM, 48 h
  Cell Viability (%): 2 ± 1%
[3]; 1000 µM, 48 h
  Cell Viability (%): 1 ± 1%
[3]; 1200 µM, 48 h
  Cell Viability (%): −1 ± 0%
[4]
  IC50: 1770 ± 20 µM
[5]
  ATYR indirectly inhibitory activity: −7 ± 7%
[6]; L-DOPA substrate
  IC50: 1420 ± 61 µM
[6]; ratio of IC50
  MTYR directly inhibitory activity relative to kojic acid: 1/15
[7]
  Inhibition type: competitive
  Km (change with increasing compound molarity): increasing
  Vmax (change with increasing compound molarity): constant
[7]; replot of Lineweaver–Burk slopes
  Ki: 170 µM
[8]
  intracellular melanin content: significantly reduce
[9]
  mRNA expression of BTYR in cells: significantly inhibit
[10]
  concentration significantly reducing melanin content of B16F10 cells in a dose-dependent manner: 55 to 218 µM

## Oc1ccc(O)cc1 [hydroquinone]
[11]; read-out: IC50 on MTYR
  IC50: 1.1 µM
[12]
  activity on HTYR relative to that on MTYR: 1/4000
[12]; read-out: IC50 on HTYR
  IC50: 4400 µM

## O=c1cc(CO)occ1O [kojic acid]
[13]; 25 µM
  viability at 48 h, 25 µM: 100 ± 4%
[13]; 50 µM
  viability at 48 h, 50 µM: 101 ± 2%
[13]; 100 µM
  viability at 48 h, 100 µM: 95 ± 1%
[13]; 200 µM
  viability at 48 h, 200 µM: 90 ± 3%
[13]; 400 µM
  viability at 48 h, 400 µM: 90 ± 3%
[13]; 600 µM
  viability at 48 h, 600 µM: 96 ± 5%
[13]; 800 µM
  viability at 48 h, 800 µM: 99 ± 4%
[4]; low concentration (12.5–400 µM) of kojic acid, read-out: EC50, promotion of ATYR activity
  EC50: 96 ± 4 µM
[4]
  IC50: 2110 ± 20 µM
[5]
  ATYR indirectly inhibitory activity: −71 ± 4%
[8]
  intracellular melanin content: significantly reduce
[9]
  mRNA expression of BTYR in cells: significantly inhibit
[10]
  concentration significantly reducing melanin content of B16F10 cells in a dose-dependent manner: 175 to 700 µM

## OC[C@H]1O[C@H](Oc2ccc(O)cc2)[C@H](O)[C@@H](O)[C@@H]1O [α-arbutin]
[11]
  inhibition of the diphenolase activity of MTYR: could not inhibit
[14]
  effect on growth of HMV-II: did not inhibit the growth

## OC[C@H]1O[C@@H](Oc2ccc(O)cc2)[C@H](O)[C@@H](O)[C@@H]1O [β-arbutin]
[3]; 25 µM
  Cell Viability (%): 108 ± 2%
[3]; 50 µM
  Cell Viability (%): 115 ± 4%
[3]; 100 µM
  Cell Viability (%): 125 ± 2%
[3]; 200 µM
  Cell Viability (%): 138 ± 3%
[3]; 400 µM
  Cell Viability (%): 171 ± 1%
[3]; 600 µM
  Cell Viability (%): 195 ± 3%
[3]; 800 µM
  Cell Viability (%): 206 ± 0%
[3]; 1000 µM
  Cell Viability (%): 211 ± 1%
[3]; 1200 µM
  Cell Viability (%): 222 ± 2%
[4]; 0.025–320 mM β-arbutin, direct
  promotion of ATYR activity (max): ≤ 21%
[5]
  ATYR indirectly inhibitory activity: 80 ± 0%
[10]
  concentration significantly reducing melanin content of B16F10 cells in a dose-dependent manner: 43.8 to 700 µM
[11]; read-out: IC50, diphenolase activity of MTYR
  IC50: 8400 µM
